Assay [1] has as its system T-cell. Nature of the assay: CD25 cell surface staining on T-cells stimulated with anti-CD3 antibody alone (Biological Example 2). The format is cell-based, human. The settings on record: T-cell, read-out: CD25 staining Anti-CD3 stimulation; for fold induction at 1 µM: 1 μM Cbl-b inhibitor; for fold induction at 8 µM: 8 μM Cbl-b inhibitor.
The subject of assay [2] is T-cell. Nature of the assay: IL-2 secretion from T-cells stimulated with anti-CD3 antibody alone (Biological Example 2). Conditions: T-cell, read-out: IL-2 secretion Anti-CD3 stimulation; for fold induction at 1 µM: 1 μM Cbl-b inhibitor; for fold induction at 8 µM: 8 μM Cbl-b inhibitor. The format is cell-based, human.
The mark [3] stands for this setting: fold change over baseline, primary human total T-cells.
Where [4] appears, read: Homo sapiens, fold change over baseline (anti-CD3/anti-CD28 stimulated T-cells without inhibitor).

The record followed here is patent US20220324835A1 (Nurix Therapeutics, Inc., priority 2018, published 2022).

For the compound `C[C@H](Cc1nncn1C)c1cccc(NC(=O)c2cc(O[C@@H]3CC[C@@H](O)C3)ccn2)c1` (relative stereo) [Compound 205, trans-4-(3-hydroxycyclopentyloxy)-N-(3-((R)-1-(4-methyl-4H-1,2,4-triazol-3-yl)propan-2-yl)phenyl)picolinamide], in assay [1] (setting [3]), the fold induction at 1 µM lay within 0.801 to 1 and the fold induction at 8 µM is more than 1. Besides, in assay [2] (setting [3]), the fold induction at 1 µM lay in the range of 0.051 to 0.1 and the fold induction at 8 µM was 0.101 to 0.15.

As for `C[C@H](c1cc2c(c(C(F)(F)F)c1)CN(c1cccc(C3([C@H](F)c4nncn4C)COC3)c1)C2=O)N1CCC2(CC2)C1` (stereo in doubt) [Example 575, 6-((R)-1-(5-Azaspiro[2.4]heptan-5-yl)ethyl)-2-(3-(3-((S)-fluoro(4-methyl-4H-1,2,4-triazol-3-yl)methyl)oxetan-3-yl)phenyl)-4-(trifluoromethyl)isoindolin-1-one], the values for the fold induction at 1 µM in assay [1] (setting [4]) and in assay [2] (setting [4]) were more than 1 and more than 0.201, respectively.

For `Cc1ccc(C(=O)Nc2cccc([C@H](C)Sc3nncn3C)c2)nc1C1CC1` [Compound 54, (S)-6-cyclopropyl-5-methyl-N-(3-(1-((4-methyl-4H-1,2,4-triazol-3-yl)thio)ethyl)phenyl)picolinamide], in assay [1] (setting [3]), the fold induction at 1 µM lay within 0.601 to 0.8 and the fold induction at 8 µM is 0.801 to 1. Further, in assay [2] (setting [3]), the fold induction at 1 µM is less than 0.05 and the fold induction at 8 µM was in the range of 0.151 to 0.2.

Take `Cc1cc(C(=O)Nc2cccc([C@H](C)Sc3nncn3C)c2)nc(C(F)(F)F)c1` [Compound 65, (S)-4-methyl-N-(3-(1-((4-methyl-4H-1,2,4-triazol-3-yl)thio)ethyl)phenyl)-6-(trifluoromethyl)picolinamide]: in assay [1] (setting [3]), the fold induction at 1 µM was in the range of 0.601 to 0.8 and the fold induction at 8 µM was more than 1. In assay [2] (setting [3]), the fold induction at 1 µM is less than 0.05 and the fold induction at 8 µM was in the range of 0.101 to 0.15.

As to `C[C@H](Sc1nncn1C)c1cccc(NC(=O)c2cc(C3CC3)cc(C(F)(F)F)n2)c1` [Compound 67, (S)-4-cyclopropyl-N-(3-(1-((4-methyl-4H-1,2,4-triazol-3-yl)thio)ethyl)phenyl)-6-(trifluoromethyl)picolinamide], in assay [1] (setting [3]), the fold induction at 1 µM is 0.801 to 1 and the fold induction at 8 µM is more than 1. Also, in assay [2] (setting [3]), the fold induction at 1 µM is less than 0.05 and the fold induction at 8 µM fell in the range of 0.101 to 0.15.

As for `C[C@H](Sc1nncn1C)c1cccc(NC(=O)c2cccc(C3CC3)n2)c1` [Compound 72, (S)-6-cyclopropyl-N-(3-(1-((4-methyl-4H-1,2,4-triazol-3-yl)thio)ethyl)phenyl)picolinamide], in assay [1] (setting [3]), the fold induction at 1 µM was less than 0.6 and the fold induction at 8 µM lay in the range of 0.801 to 1. In addition, in assay [2] (setting [3]), the fold induction at 1 µM fell in the range of 0.051 to 0.1 and the fold induction at 8 µM was 0.151 to 0.2.

In the case of `C[C@H](Sc1nncn1C)c1cccc(NC(=O)c2ccnc(C3CC3)n2)c1` [Compound 76, 2-cyclopropyl-A-[3-[(1S)-1-[(4-methyl-1,2,4-triazol-3-yl)sulfanyl]ethyl]phenyl]pyrimidine-4-carboxamide], in assay [1] (setting [3]), the fold induction at 1 µM lay within 0.601 to 0.8 and the fold induction at 8 µM is more than 1. In assay [2] (setting [3]), the fold induction at 1 µM is less than 0.05 and the fold induction at 8 µM lay within 0.051 to 0.1.

For `C[C@H](Sc1nncn1C)c1cccc(NC(=O)c2ccc(CO)c(C3CC3)n2)c1` [Compound 89, 6-cyclopropyl-5-(hydroxymethyl)-N-[3-[(1S)-1-[(4-methyl-1,2,4-triazol-3-yl)sulfanyl]ethyl]phenyl]pyridine-2-carboxamide], in assay [1] (setting [3]), the fold induction at 1 µM is less than 0.6 and the fold induction at 8 µM fell in the range of 0.801 to 1. In assay [2] (setting [3]), the fold induction at 1 µM is less than 0.05 and the fold induction at 8 µM was in the range of 0.101 to 0.15.

For the compound `C[C@H](Sc1nncn1C)c1cccc(NC(=O)c2ccc(F)c(C3CC3)n2)c1` [Compound 91, 6-Cyclopropyl-5-fluoro-N-[3-[(1S)-1-[(4-methyl-1,2,4-triazol-3-yl)sulfanyl]ethyl]phenyl]pyridine-2-carboxamide], in assay [1] (setting [3]), the fold induction at 1 µM is 0.601 to 0.8 and the fold induction at 8 µM was more than 1. In assay [2] (setting [3]), the fold induction at 1 µM was less than 0.05 and the fold induction at 8 µM was 0.101 to 0.15.
